For this data set, the system named is SSAT transgenic rats. Nature of the data set: Stability of the analogues in the liver of SSAT transgenic rats without or with MDL72527 (hepatic polyamine pools). It counts as in vivo, rat. The note with it: for metabolic stability / conversion in the liver in vivo: without MDL72527; for conversion to α-methylspermidine in the liver: with MDL72527 50 mg/kg i.p. twice. How it is done: FIGS. 8A-8D. Hepatic polyamine pools in SSAT transgenic rats treated with methylated polyamine analogues without or with MDL72527. The rats were injected twice with MDL72527 (50 mg/kg i.p.) at 16-h interval. The polyamine analogues (25 mg/kg i.p.) were injected 2 and 8 h later. The animals were sacrificed 24 h after the last MDL72527 injection. There were three to four animals in each group. Put, putrescine; […] Spd, spermidine; Me-Spd, α-methylspermidine; […] The production of transgenic Wistar rats (UKUR30) and mice (UKU181) harboring metallothionein-SSAT fusion gene (Suppola, […]., Porter, C. W., and Jänne, J. (1999) Biochem. […] (2000) Proc. Natl. Acad. Sci. U.S.A. 97, 8290-8295; Lukkarinen, […]., and Alhonen, L. (1997) Stroke 28, 639-645). Partial hepatectomy was carried out according to the original method of Higgins and Anderson (Higgins, G. H., and Anderson, R. M. (1931) Arch. Pathol. 12, 186-202). Treatments before partial hepatectomy and the determination of DNA synthesis were carried out as in ([…]., Suppola, […]., and […]. Biol. Chem. 277, 39867-39872). Transgenic 10 weeks old male rats were injected twice with MDL72527 (50 mg/kg i.p.) at 16-h interval to inactivate PAO according to (Bolkenius, F. N., Bey, P., and Seiler, N. (1985) Biochim. Biophys. […] An aliquot of the homogenates was used for the polyamine assays. The homogenates were centrifuged (at 13 000×g, for 30 min, at 4° C.) and the supernatants were used for the enzyme activity assays. The Institutional Animal Care and Use Committee of the University of Kuopio and by the Provincial Government approved animal experiments. […] Merck (Darmstadt, Germany).

For `CC(N)CCNCCCCNCCCN` (stereo not drawn) [α-methylspermine, 1-methylspermine], the “conversion to α-methylspermidine in the liver” value is on record as “markedly inhibited”. Also, the “metabolic stability / conversion in the liver in vivo” value (“metabolic stability / conversion” for short) (25 mg/kg i.p. twice) is reported as “effectively converted to α-methylspermidine”.
As to `CC(N)CCNCCCCN` (stereo not drawn) [α-methylspermidine, 1-methylspermidine], for the setting “25 mg/kg i.p. twice”, the “accumulation in the liver (tissue concentration)” value is on record as “highest tissue concentrations” and the “metabolic stability / conversion” value is “metabolically stable”.
In the case of `CC(N)CCNCCCCNCCC(C)N` (stereo not drawn) [bis-α-methylspermine, 1,12-dimethylspermine], the “conversion to α-methylspermidine in the liver” value was “totally prevented”. The “metabolic stability / conversion” value (25 mg/kg i.p. twice) is listed as “converted to α-methylspermidine, but less effectively than α-methylspermine”.

Values taken from patent US7202280B2, “Methods for the treatment and prevention of pancreatitis and for induction of liver regeneration” (priority 2002, dated 2007).
